In brackets after ≈: the same amount, converted by molar mass. Several values for one entry are separate records, joined by “and”; a condition that tells them apart may be missing. Equal values may be shown once. Read-outs that look alike come from different tables or passages of the source.
Assays:
[1] = target: T1, papain (Carica papaya, UniProt P00784); test: Cysteine protease inhibitory activity, papain with Bz-DL-Arg-pNA substrate; type: biochemical; settings: for Type of inhibition: Lineweaver–Burk plot; for IC50: papain
T1 construct: To solutions of active papain (final concentration: 0.05 mM); purchased Sigma Chemical Co., St. Louis, MO, USA
T1 sequence (P00784 134-345): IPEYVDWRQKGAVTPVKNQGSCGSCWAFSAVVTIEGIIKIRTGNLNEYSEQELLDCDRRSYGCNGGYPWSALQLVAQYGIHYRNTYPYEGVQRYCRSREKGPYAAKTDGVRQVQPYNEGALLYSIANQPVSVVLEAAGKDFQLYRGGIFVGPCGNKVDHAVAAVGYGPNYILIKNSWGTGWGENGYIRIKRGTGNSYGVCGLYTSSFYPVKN
Protocol: The capacity of the 1-pyridylimidazo[1,5-a]pyridine derivatives to inhibit cysteine proteases was tested using papain as the model enzyme. The proteolytic activity of the reaction mixtures was determined using Bz-DL-Arg-pNA as the chromogenic substrate. To solutions of active papain (final concentration: 0.05 mM) were added concentrated solutions of the different derivatives to final concentrations of 0.2 mM. […] The same procedure was used at 32°C and 42°C for thermodynamics studies. The kinetic parameters for the substrate hydrolysis were determined by measuring the initial rate of enzymatic activity. The inhibition constant Ki was determined by Dixon method and also by the Lineweaver–Burk equation. The Km value was calculated from the double-reciprocal equation by fitting the data into the computer software Origin 6.1. The Lineweaver–Burk plot was used to determine the types of inhibition. For the kinetic analysis and rate constant determinations, the assays were carried out in triplicate, and the average value was considered throughout this work.

[2] = target: T1, papain; test: Thermodynamics analysis of papain inhibition (Van't Hoff); type: biochemical; settings: Value at 37°C; for ΔH (enthalpy change): Van't Hoff plot
Protocol: Free energy changes of inhibition of papain against 1- substituted pyridylimidazo[1,5-a] pyridine derivatives (ΔG) were determined by the equation, [drawing 1] (1)
Temperature dependence of the inhibition constants was used to determine the thermodynamic parameters. Changes in enthalpy (ΔH) were determined from the Van’t Hoff plots by using the equation, [drawing 2] (2)
Where ΔH is enthalpy change, R is gas constant, ΔS is entropy change and T is the absolute temperature. The entropy change was obtained from the equation, [drawing 3] (3)

[3] = system: Bacillus spp. (ATCC-14593); test: MIC, micro dilution method; type: cell-based; settings: ATCC14593; Bacillus sp.
Protocol: (§1) The disk diffusion method was used for the preliminary antibacterial evaluation of 1-pyridylimidazo[1,5-a]pyridine derivatives. The MIC50 of these derivatives, showing inhibition in the preliminary tests, were further determined by the microtitre plate technique using micro dilution method. In brief, the bacterial strains (S. aureus, P. vulgaris, Group D Streptococci, Bacillus sp., E. coli, P. aeruginosa and S. morganii)) were grown and diluted to 2×10^5 colony-forming units (CFU)/ml in sodium phosphate buffer (SPB) containing 0.03% Luria–Bertani (LB) broth. The synthesized derivatives were dissolved in DMSO and their serial dilution was performed in 50 µL of LB medium in 96-well microtitre plate to achieve the required concentrations (0.1–10 µg/ml) with bacterial inoculums (5×10^4 CFU per well). DMSO was taken as negative control and Ceftriaxone and clotrimazole were taken as positive control. After incubation at 37°C overnight, the MICs were taken as the lowest inhibitor concentration at which the bacterial growth was inhibited. The average of three values was calculated and that was the MIC for the test material and bacterial strain. […]

[4] = system: Escherichia coli (ATCC-25922); test: MIC, micro dilution method; type: cell-based; settings: ATCC25922, E. coli
Protocol: as §1

[5] = system: Proteus vulgaris (ATCC-29905); test: MIC, micro dilution method; type: cell-based; settings: ATCC29905, P. vulgaris
Protocol: as §1

[6] = system: Pseudomonas aeruginosa (ATCC-27853); test: MIC, micro dilution method; type: cell-based; settings: ATCC27853
Protocol: as §1

[7] = system: Staphylococcus aureus (ATCC-25923); test: MIC, micro dilution method; type: cell-based; settings: ATCC25923, S. aureus
Protocol: as §1

[8] = system: Group D Streptococci (ATCC-12959); test: MIC, micro dilution method; type: cell-based
Protocol: (§2) The disk diffusion method was used for the preliminary antibacterial evaluation of 1-pyridylimidazo[1,5-a]pyridine derivatives. The MIC50 of these derivatives, showing inhibition in the preliminary tests, were further determined by the microtitre plate technique using micro dilution method. In brief, the bacterial strains (S. aureus, P. vulgaris, Group D Streptococci, Bacillus sp., E. coli, P. aeruginosa and S. morganii)) were grown and diluted to 2×10^5 colony-forming units (CFU)/ml in sodium phosphate buffer (SPB) containing 0.03% Luria–Bertani (LB) broth. The synthesized derivatives were dissolved in DMSO and their serial dilution was performed in 50 µL of LB medium in 96-well microtitre plate to achieve the required concentrations (0.1–10 µg/ml) with bacterial inoculums (5×10^4 CFU per well). DMSO was taken as negative control and Ceftriaxone and clotrimazole were taken as positive control. After incubation at 37°C overnight, the MICs were taken as the lowest inhibitor concentration at which the bacterial growth was inhibited. The average of three values was calculated and that was the MIC for the test material and bacterial strain.
(§3) For the agar plate count method, 25 µL aliquots of bacteria at 1×10^5 CFU/ml in SPB containing 0.03% LB broth were incubated with 25 µL of diluted compounds for 2 h at 37°C. The mixtures of bacteria and compounds were serially diluted 10-fold with SPB and plated on LB plates that were incubated at 37°C overnight. Bacterial colonies were enumerated the following day.

[9] = system: Serratia morganii (ATCC- 31665); test: MIC, micro dilution method; type: cell-based; settings: ATCC31665
Protocol: as §2, §3

[10] = system: Bacillus spp. (ATCC-14593); test: MBC, sub cultivation from MIC plate; type: cell-based; settings: ATCC14593, Bacillus sp.
Protocol: (§4) After having determined the MICs, bacterial strains from the wells of the microtitre plate with no visible bacterial growth were removed for serial sub cultivation of 2 µl into another new microtitre plate containing 100 µl of broth per well and further incubated for 24 h. The lowest concentration with no visible growth was defined as MBC [28], indicating 99.5% killing of the original inoculum. The absorbance of each well was measured at a wavelength of 620 nm by Microplate Manager 4.0 (Bio-Rad laboratories) and compared with a blank. Solvent (DMSO) was used as a negative control. Three replicates were done for each compound and experiment was repeated two times.

[11] = system: Escherichia coli (ATCC-25922); test: MBC, sub cultivation from MIC plate; type: cell-based; settings: ATCC25922, E. coli
Protocol: as §4

[12] = system: Group D Streptococci (ATCC-12959); test: MBC, sub cultivation from MIC plate; type: cell-based
Protocol: as §4

[13] = system: Proteus vulgaris (ATCC-29905); test: MBC, sub cultivation from MIC plate; type: cell-based; settings: ATCC29905, P. vulgaris
Protocol: as §4

[14] = system: Pseudomonas aeruginosa (ATCC-27853); test: MBC, sub cultivation from MIC plate; type: cell-based
Protocol: as §4

[15] = system: Serratia morganii (ATCC- 31665); test: MBC, sub cultivation from MIC plate; type: cell-based
Protocol: as §4

[16] = system: Staphylococcus aureus (ATCC-25923); test: MBC, sub cultivation from MIC plate; type: cell-based; settings: ATCC25923, S. aureus
Protocol: as §4

[17] = system: Bacillus spp. (ATCC-14593); test: MIC, micro dilution method; type: cell-based; settings: ATCC14593; Bacillus sp.; remark: listed apart in the source

Structure (SMILES)	Ki ([1]; 32°C) [µM]	Ki ([1]; 37°C) [µM]	Ki ([1]; 42°C) [µM]	Type of inhibition [1]	IC50 [1] [µM]	ΔG (free energy of binding) [2]	ΔS (entropy change) [2]	ΔH (enthalpy change) [2]	MIC50 [3] [µg/mL]	MIC50 [4] [µg/mL]	MIC90 [4] [µg/mL]	MIC50 [5] [µg/mL]	MIC90 [5] [µg/mL]	MIC50 [6] [µg/mL]	MIC90 [6] [µg/mL]	MIC50 [7] [µg/mL]	MIC90 [7] [µg/mL]	MIC50 [8] [µg/mL]	MIC90 [8] [µg/mL]	MIC50 [9] [µg/mL]	other results
Oc1ccccc1-c1nc(-c2ccccn2)c2ccccn12 [Compound 3a, 1-(2-pyridyl)-3-(2-hydroxyphenyl) imidazo[1,5-a]pyridine]	14.3	13.7	11.1	Non- Competitive	13.4	−6.86 Kcalmol^−1 and −6.86(±0.30) Kcalmol^−1	72.92 (±2.33) Jmol-K^−1	−6.2(±0.88) KJmol^−1	0.6 (≈ 2.09 µM)	0.6 (≈ 2.09 µM)	0.99 (≈ 3.45 µM)	0.8 (≈ 2.78 µM)	1.6 (≈ 5.57 µM)	0.6 (≈ 2.09 µM)	1.09 (≈ 3.79 µM)	0.9 (≈ 3.13 µM)	1.7 (≈ 5.92 µM)	0.7 (≈ 2.44 µM)	1.3 (≈ 4.52 µM)	0.8 (≈ 2.78 µM)	MIC90 [9]: 1.5 µg/mL (≈ 5.22 µM); MBC ([10]; read-out: MBC50): 1.2 µg/mL (≈ 4.18 µM); MBC ([10]; read-out: MBC90): 2.3 µg/mL (≈ 8 µM); MBC ([11]; read-out: MBC50): 1.3 µg/mL (≈ 4.52 µM); MBC ([11]; read-out: MBC90): 2.1 µg/mL (≈ 7.31 µM); MBC ([12]; read-out: MBC50): 1.3 µg/mL (≈ 4.52 µM); MBC ([12]; read-out: MBC90): 2.5 µg/mL (≈ 8.7 µM); MBC ([13]; read-out: MBC50): 1.6 µg/mL (≈ 5.57 µM); MBC ([13]; read-out: MBC90): 3.1 µg/mL (≈ 10.8 µM); MBC ([14]; ATCC27853, read-out: MBC50): 1.1 µg/mL (≈ 3.83 µM); MBC ([14]; ATCC27853, read-out: MBC90): 1.9 µg/mL (≈ 6.61 µM); MBC ([15]; ATCC31665, read-out: MBC50): 1.6 µg/mL (≈ 5.57 µM); MBC ([15]; ATCC31665, read-out: MBC90): 3.1 µg/mL (≈ 10.8 µM); MBC ([16]; read-out: MBC50): 1.8 µg/mL (≈ 6.26 µM); MBC ([16]; read-out: MBC90): 3.5 µg/mL (≈ 12.2 µM); MIC90 [17]: 1.2 µg/mL (≈ 4.18 µM)
CC(C)(C)c1cc(-c2nc(-c3ccccn3)c3ccccn23)cc(C(C)(C)C)c1O [Compound 3d, 1-(2-pyridyl)-3-(3,5-di-tert-butyl-4-hydroxyphenyl) imidazo[1,5-a]pyridine]	110	99.3	89.2	Non -Competitive	96.5	−5.64 Kcalmol^−1 and −5.64(±0.24) Kcalmol^−1	59.73(±1.93) Jmol-K^−1	−5.2 (±0.84) KJmol^−1	1.4 (≈ 3.5 µM)	1.2 (≈ 3 µM)	2.3 (≈ 5.76 µM)	0.9 (≈ 2.25 µM)	1.7 (≈ 4.25 µM)	1.2 (≈ 3 µM)	2 (≈ 5.01 µM)	1.2 (≈ 3 µM)	2.3 (≈ 5.76 µM)	1 (≈ 2.5 µM)	1.9 (≈ 4.76 µM)	1.1 (≈ 2.75 µM)	MIC90 [9]: 2.1 µg/mL (≈ 5.26 µM); MBC ([10]; read-out: MBC50): 2.5 µg/mL (≈ 6.26 µM); MBC ([10]; read-out: MBC90): 4.7 µg/mL (≈ 11.8 µM); MBC ([11]; read-out: MBC50): 2.5 µg/mL (≈ 6.26 µM); MBC ([11]; read-out: MBC90): 4.9 µg/mL (≈ 12.3 µM); MBC ([12]; read-out: MBC50): 2.3 µg/mL (≈ 5.76 µM); MBC ([12]; read-out: MBC90): 4.4 µg/mL (≈ 11 µM); MBC ([13]; read-out: MBC50): 1.7 µg/mL (≈ 4.25 µM); MBC ([13]; read-out: MBC90): 3.4 µg/mL (≈ 8.51 µM); MBC ([14]; ATCC27853, read-out: MBC50): 2.4 µg/mL (≈ 6.01 µM); MBC ([14]; ATCC27853, read-out: MBC90): 4.4 µg/mL (≈ 11 µM); MBC ([15]; ATCC31665, read-out: MBC50): 2.4 µg/mL (≈ 6.01 µM); MBC ([15]; ATCC31665, read-out: MBC90): 4.4 µg/mL (≈ 11 µM); MBC ([16]; read-out: MBC50): 2.6 µg/mL (≈ 6.51 µM); MBC ([16]; read-out: MBC90): 5.2 µg/mL (≈ 13 µM); MIC90 [17]: 2.6 µg/mL (≈ 6.51 µM)

Source: PMC3734177, “Design, Synthesis, Evaluation and Thermodynamics of 1-Substituted Pyridylimidazo[1,5-a]Pyridine Derivatives as Cysteine Protease Inhibitors” (PLoS ONE, 2013)
